Laboratory results as given in paper PMC11475369, “Exploring the Potential of Synthetic Cannabinoids: Modulation of Biological Activity of Normal and Cancerous Human Colon Epithelial Cells” (Cells, 2024).
In brackets after ≈: the same amount, converted by molar mass.

Experiments:
HT29 cells [1] = assay: MTT assay, metabolic activity of HT29 cells; format: cell-based; conditions: Homo sapiens, HT-29; HT29 colon tumor cells, 24 h incubation; read-out: IC50 Values (MTT method)
Procedure: (§1) The HT29 cell line (ATCC no. HTB-38) (human colon adenocarcinoma) was used in the present study. Cells were cultivated in RPMI 1640 culture medium with 10% fetal calf serum (FCS) (GibcoTM, Paisley, UK), supplemented with antibiotics (100 U/mL penicillin and 100 μg/mL streptomycin) (Sigma, St. Louis, MO, USA). The cell culture was performed in standard conditions, i.e., at 37 °C in a humidified atmosphere with 5% CO2. The CCD 841 CoTr cell line (ATCC no. CRL-1807) (human normal colon epithelium) was cultivated in RPMI 1640 +DMEM (1:1) medium (Sigma, St. Louis, MO, USA) with 10% FCS and the addition of antibiotics. The culture was carried out at 34 °C in a 5% CO2/95% air atmosphere.
(§2) After seeding (1 × 10^5 cells/mL) in a 96-well plate, the cells were incubated for 24 h. Thereafter, the tested compounds (100 μL) at a concentration range of 0–200 μg/mL in the culture medium were added to the wells (100 μL). The incubation lasted for 24 h. After that time, an MTT solution (5 mg/mL, 25 μL/well) was added to each well. The incubation was continued for another 3 h. After the incubation, 10% sodium dodecyl sulfate (SDS) in 0.01 M HCl (100 μL) was added in order to dissolve the purple formazan crystals. Solubilization was carried out overnight. Finally, spectrophotometric measurement was performed at 570 nm using an EL800 Universal Microplate Reader (BioTek Instruments, Winooski, VT, USA).

CCD 841 CoTr cells [2] = assay: Flow cytometry (PI) cell cycle analysis of CCD 841 CoTr cells; format: cell-based, human; conditions: 25 μg/mL, 24 h
Procedure: In the flow cytometric study, we assessed the impact of the cannabinoids at a concentration of 25 μg/mL on the distribution of cell cycle phases in the normal and cancer cells after 24 h incubation. Both adhered, and non-adsorbed (floating) cells were used to perform the analyses. They were collected after 24 h of incubation with the tested cannabinoids and centrifuged (3000 rpm/5 min.). Next, the cell pellet was rinsed and suspended in PBS w/o Ca^2+ and Mg^2+ ions and centrifuged again (3000 rpm/5 min.). The cell pellet was suspended and fixed in 70% ethanol (1 mL). Untreated cells served as a control. The cells were stored at −20 °C for 1 week. After that time, in accordance with the manufacturer protocol, the cells were subjected to the PI staining procedure (PI/RNase Staining Buffer, BD PharmingenTM, BD Biosciences, San Jose, CA, USA). Briefly, 1 mL of PBS w/o Ca^2+ and Mg^2+ ions was added to 1 mL of ethanol and incubated with gentle stirring for 5 min. at room temperature. Next, the cells were centrifuged (3000 rpm/5 min.) and suspended in PBS w/o Ca^2+ and Mg^2+ ions with gentle stirring for 5 min. at room temperature. The cells were centrifuged once again (3000 rpm/5 min.) and the cell pellet was suspended in 500 μL of PI/RNase Staining Buffer. The incubation was carried out for 15 min. at room temperature. Finally, the intensity of the PI fluorescence was measured using FACS Calibur (BD Pharmingen^TM). The obtained data were analyzed using Cell Quest Pro Version 6.0. for the Macintosh operating system (BD Pharmingen^TM). The percentage of cells in the appropriate phases of the cycle was calculated based on all analyzed gated cells. A total of 10,000 events were measured per sample.

HT29 cells [3] = assay: Neutral Red (NR) uptake assay, viability of HT29 cells; format: cell-based; conditions: Homo sapiens, HT-29; HT29 colon tumor cells, 24 h incubation
Procedure: as §1
(§3) After seeding (1 × 10^5 cells/mL) in a 96-well plate, the cells were incubated for 24 h. Thereafter, the tested compounds (100 μL) at a concentration range of 0–200 μg/mL in the culture medium were added to the wells (100 μL). The incubation lasted for 24 h. After that time, the culture medium was removed and a 0.4% Neutral Red solution in the culture medium was added to each well. The incubation was continued for another 3 h. After the incubation, the medium with the NR dye was discarded, and 4% paraformaldehyde in 1% CaCl2 was added for cell fixation (200 μL) and incubated for 3 min. Intracellular dye deposits were solubilized using 1% […] in a 50% ethanol solution (100 μL). The plates were then gently shaken (20 min.) at room temperature to dissolve and release the dye from the cells. Finally, spectrophotometric measurement was performed at 540 nm using an EL800 Universal Microplate Reader (BioTek Instruments, Winooski, VT, USA).

CCD 841 CoTr cells [4] = assay: Nitric oxide (NOx) release in CCD 841 CoTr culture, Griess method; format: cell-based, human; conditions: CCD 841 CoTr normal cells, 0–200 μg/mL, 24 h
Procedure: In this spectrophotometric method, the stable end products (nitrate and nitrite) were analyzed in the normal and tumor culture supernatants after 24 h of incubation of the cells with the cannabinoids in the concentration range of 0–200 μg/mL. The Griess reaction was applied. This method involves a 2-step reaction, whose product is a red-pink azo dye. The amount of this dye is directly proportional to the amount of NO. The cells were cultured for 24 h in 24-well plates (1 mL/well, density 1 × 10^5 cells/mL); next, after withdrawing the culture fluid, the tested cannabinoids were added to the wells at a volume of 1 mL/well and the incubation was carried out for another 24 h. After the incubation, the culture media were collected and frozen at −80 °C for no longer than 1 month. For calibration and quantitative analysis, the standard curve was prepared using 0.5–25 μM sodium nitrite (NaNO2). Thawed and centrifuged (5000 rpm/5 min.) supernatant samples and the standard were poured into a 96-well flat-bottomed plate at 100 µL/well. Each sample was analyzed in triplicate. Subsequently, 100 µL/well of Griess reagent (1% sulfanilamide/0.1% N-(1-naphthyl)ethylenediamine dihydrochloride) in 3% H3PO4 was added to all wells and incubated at room temperature for 10 min. Finally, the absorbance of the samples was spectrophotometrically read at 570 nm using an EL800 Universal Microplate Reader (BioTek Instruments, Winooski, VT, USA).

[5] = Flow cytometry annexin V-FITC/PI, cell death types in CCD 841 CoTr cells; format: cell-based, human; conditions: human, CCD 841 CoTr cells (normal cells), read-out: Percentage of viable cells
Procedure: (§4) In a further flow cytometric study measuring normal and tumor cell death types, the cells were exposed to the cannabinoids at a concentration of 25 μg/mL for 24 h.
(§5) The annexin V-fluorescein isothiocyanate (FITC)/propidium iodide (PI) apoptosis kit (BD Biosciences, BD Pharmingen™, San Jose, CA, USA) was used for the quantitative analysis of cannabinoid-induced cell death.
(§6) For the analyses, both adhered (after detaching the cells with 10 mM EDTA in PBS w/o Ca^2+ and Mg^2+ ions solution) and floating cells were collected after 24 h of incubation with the tested cannabinoids. After collection, the cells were gently centrifuged (1000 rpm/5 min.). Next, the supernatant was discarded, and the cell pellet was suspended in warm PBS w/o Ca^2+ and Mg^2+ ions and incubated for 5 min. at room temperature. The centrifugation procedure was repeated again and, following the manufacturer’s procedure, the cells were suspended in 100 μL of 1X Annexin V Binding Buffer with 5 μL of FITC Annexin V […] and 5 μL of propidium iodide (PI) (5 mM). The preparation was gently vortexed and incubated at room temperature for 15 min. in the dark. After that time, the cells were subjected to cytometric analysis. Before dosing the cells into the cytometer, 400 μL of 1X Binding Buffer was added. The cells were analyzed using a flow cytometer (BD FACSCalibur) with CellQuest Pro Version 6.0 software within 1 h after the staining was completed.

CCD 841 CoTr cells [6] = assay: as above; format: cell-based, human; conditions: 25 μg/mL, 24 h
Procedure: as §4, §5, §6

CCD 841 CoTr cells [7] = assay: MTT assay, metabolic activity of CCD 841 CoTr cells; format: cell-based, human; conditions: Homo sapiens, CCD-841, 24 h, CCD 841 CoTr colon normal cells, 24 h incubation; read-out: IC50 Values (MTT method)
Procedure: as §1, §2

CCD 841 CoTr cells [8] = assay: Neutral Red (NR) uptake assay, viability of CCD 841 CoTr cells; format: cell-based; conditions: Homo sapiens; CCD 841 CoTr colon normal cells, 24 h incubation
Procedure: as §1, §3

HT29 cells [9] = assay: Flow cytometry annexin V-FITC/PI, cell death types in HT29 cells; format: cell-based, human; conditions: HT29, 25 μg/mL, 24 h
Procedure: as §4, §5, §6

C=C(C)[C@@H]1CCC(C)=C[C@H]1c1c(O)cc(CCCCC)cc1O [CBD, cannabidiol]
IC50 (HT29 cells [1]): 57.5 µg/mL (≈ 183 µM) | Increase in the number of cells in the sub-G1 phase compared to the control (CCD 841 CoTr cells [2]): 21.88% | Percentage of cells in G1 phase (CCD 841 CoTr cells [2]): 21.89 ± 0.34 % | Percentage of cells in G2 phase (CCD 841 CoTr cells [2]): 14.10 ± 0.19 % | Percentage of cells in S phase (CCD 841 CoTr cells [2]): 16.39 ± 0.04 % | Percentage of cells in sub-G1 phase (CCD 841 CoTr cells [2]): 44.01 ± 0.37 % | IC50 (HT29 cells [3]): 60.5 µg/mL (≈ 192 µM) | Effect on release of nitric oxide NOx (in words) (CCD 841 CoTr cells [4]): increase in NOx levels with increasing concentration | viability at 24 h, 25 μg/mL [5]: 79.4 ± 1.18% | Cells in late apoptosis, more than in the control (CCD 841 CoTr cells [6]): 11.36% | Cells in necrosis, more than in the control (CCD 841 CoTr cells [6]): 1.43% | Percentage of cells in early apoptosis (CCD 841 CoTr cells [6]): 1.97 ± 0.19% | Percentage of cells in late apoptosis (CCD 841 CoTr cells [6]): 16.96 ± 1.26 % | Percentage of cells in necrosis (CCD 841 CoTr cells [6]): 1.71 ± 0.28 % | Reduction in the number of viable normal cells compared to the control (CCD 841 CoTr cells [6]): 12.95% | IC50 (CCD 841 CoTr cells [7]): 42.6 µg/mL (≈ 135 µM) | IC50 (CCD 841 CoTr cells [8]): 48.2 µg/mL (≈ 153 µM) | Percentage of cells in early apoptosis (HT29 cells [9]): 0.77 ± 0.21% | Percentage of cells in late apoptosis (HT29 cells [9]): 17.03 ± 0.29 % | Percentage of cells in necrosis (HT29 cells [9]): 0.67 ± 0.22% | Reduction in the number of viable cells compared to the control (HT29 cells [9]): 13.62% | viability at 25 µg/mL (HT29 cells [9]; Homo sapiens, HT-29, read-out: Percentage of viable cells): 81.54 ± 0.28%
